In brackets after ≈: the same amount, converted by molar mass.
Columns and labels:
[1] = test system: SW-480 human colon adenocarcinoma cells; assay: Growth inhibition, MTT assay, SW-480; assay type: cell-based; details: for Activity relative to tubulysin D in SW-480, in words: colon cancer cell line SW-480
Protocol: (§1) Cell lines were obtained from the American Type Culture Collection (ATCC) and the German Collection of Microorganisms and Cell Cultures (DSMZ). All cell lines were cultivated under conditions recommended by their respective depositors. Growth inhibition was measured in microtiter plates. Aliquots of 120 μl of the suspended cells (50,000/mL) were given to 60 μL of a serial dilution of the inhibitor and incubated at 37° C. and 10% CO2. After 5 days, when control cells had grown to confluence state, the metabolic activity in each well was determined using an MTT assay.

[2] = test system: L929 mouse fibroblast cells; assay: Growth inhibition, MTT assay, L929; assay type: cell-based; details: for Cytotoxicity / activity relative to tubulysin D, in words: statement on Table 2 cell lines
Protocol: as §1

[3] = Growth inhibition, MTT assay, L929; assay type: cell-based, Mouse; details: mouse, L929 mouse fibroblast cells; cell line not given; read-out: Cytotoxicity (text, refers to Table 2)
Protocol: as §1

[4] = test system: KB-3-1 human cervix carcinoma cells; assay: Growth inhibition, MTT assay, KB-3-1; assay type: cell-based; details: KB 3-1, 120 h; human cervix carcinoma (DSMZ ACC 158); MTT after 5 days; read-out: IC50 (ng/mL) KB-3-1
Protocol: as §1

Row | SMILES | Cytotoxicity / activity relative to tubulysin D, in words [2] | other results
1 | CC[C@H](C)[C@H](NC(=O)CN(C)C)C(=O)N(COC(=O)CC(C)C)[C@H](C[C@@H](OC(C)=O)c1nc(C(=O)N[C@@H](Cc2ccccc2)C[C@H](C)C(=O)O)cs1)C(C)C [Analogue 6, 4-[(2-{1-acetoxy-3-[[2-(2-dimethylamino-acetylamino)-3-methyl-pentanoyl]-(3-methyl-butyryloxymethyl)-amino]-4-methyl-pentyl}-thiazole-4-carbonyl)-amino]-2-methyl-5-phenyl-pentanoic acid] | essentially equipotent with tubulysin D | Activity relative to tubulysin D in SW-480, in words [1]: more active than tubulysin D
2 | CC[C@H](C)[C@H](NC(=O)[C@H]1CCCCN1C)C(=O)N(C)[C@H](C[C@@H](OC(C)=O)c1nc(C(=O)NC)cs1)C(C)C [Analogue 11, acetic acid 4-methyl-1-(4-methylcarbamoyl-thiazol-2-yl)-3-(methyl-{3-methyl-2-[(1-methyl-piperidine-2-carbonyl)-amino]-pentanoyl}-amino)-pentyl ester] |  | IC50 at 5 days [3]: 2 ng/mL (≈ 3.62 nM)
3 | CC[C@H](C)[C@H](N=[N+]=[N-])C(=O)N(COC(=O)CC(C)C)[C@H](C[C@@H](OC(C)=O)c1nc(C(=O)N[C@@H](Cc2ccccc2)C[C@H](C)C(=O)O)cs1)C(C)C [Analogue 8, 4-[(2-{1-acetoxy-3-[(2-azido-3-methyl-pentanoyl)-(3-methyl-butyryloxymethyl)-amino]-4-methyl-pentyl}-thiazole-4-carbonyl)-amino]-2-methyl-5-phenyl-pentanoic acid] | drastic decrease in activity | 
4 | CC[C@H](C)[C@H](NC(=O)[C@H]1CCCCN1C)C(=O)N(C)[C@H](C[C@@H](OC(C)=O)c1nc(C(=O)N[C@@H](Cc2ccccc2)C[C@H](C)C(=O)O)cs1)C(C)C [Analogue 10, 4-({2-[1-Acetoxy-4-methyl-3-(methyl-{3-methyl-2-[(1-methyl-piperidine-2-carbonyl)-amino]-pentanoyl}-amino)-pentyl]-thiazole-4-carbonyl}-amino)-2-methyl-5-phenyl-pentanoic acid] |  | Activity relative to tubulysin D in SW-480, in words [1]: more active than tubulysin D
5 | CC[C@H](C)[C@H](NC(=O)[C@H]1CCCCN1C)C(=O)N(COC(=O)CC(C)C)[C@H](C[C@@H](OC(C)=O)c1nc(C(=O)NC)cs1)C(C)C [Analogue 4, 3-methyl-butyric acid ({1-[2-acetoxy-2-(4-methylcarbamoyl-thiazol-2-yl)-ethyl]-2-methyl-propyl}-{3-methyl-2-[(1-methyl-piperidine-2-carbonyl)-amino]-pentanoyl}-amino)-methyl ester] | maintained good activity | 
6 | CC[C@H](C)[C@H](NC(=O)[C@H]1CCCCN1C)C(=O)N(COC(=O)CC(C)C)[C@H](C[C@@H](OC(C)=O)c1nc(C(=O)NCCc2ccccc2)cs1)C(C)C [Analogue 2, 3-methyl-butyric acid ({1-[2-acetoxy-2-(4-phenethylcarbamoyl-thiazol-2-yl)-ethyl]-2-methyl-propyl}-{3-methyl-2-[(1-methyl-piperidine-2-carbonyl)-amino]-pentanoyl}-amino)-methyl ester] | cytoxicity comparable to the parent tubulysin | 
7 | CC[C@H](C)[C@H](NC(=O)[C@H]1CCCCN1C)C(=O)N(COC(=O)CC(C)C)[C@H](C[C@@H](OC(C)=O)c1nc(C(=O)NCCCC(=O)O)cs1)C(C)C [Analogue 3, 3-Methyl-butyric acid ((1-{2-acetoxy-2-[4-(3-carboxy-propylcarbamoyl)-thiazol-2-yl]-ethyl}-2-methyl-propyl)-{3-methyl-2-[(1-methyl-piperidine-2-carbonyl)-amino]-pentanoyl}-amino)-methyl ester] | cytoxicity comparable to the parent tubulysin | 
8 | CC[C@H](C)[C@H](NC(=O)[C@H]1CCCCN1C)C(=O)N(COC(=O)CC(C)C)[C@H](C[C@@H](OC(C)=O)c1nc(C(=O)O)cs1)C(C)C [Analogue 5, 2-[1-acetoxy-4-methyl-3-((3-methyl-butyryloxymethyl)-{3-methyl-2-[(1-methyl-piperidine-2-carbonyl)-amino]-pentanoyl}-amino)-pentyl]-thiazole-4-carboxylic acid] | maintained good activity | 
9 | CC[C@H](C)[C@H](NC(=O)[C@H]1CCCCN1C)C(=O)N(COC(=O)CC(C)C)[C@H](C[C@@H](O)c1nc(C(=O)N[C@@H](Cc2ccccc2)C[C@H](C)C(=O)O)cs1)C(C)C [Analogue 9] | minimal drop in cytotoxicity relative to the natural product | IC50 ([1]; SW480, 120 h, human colon adenocarcinoma (ATCC CCL-228), MTT after 5 days, read-out: IC50 (ng/mL) SW-480): 0.057 ng/mL (≈ 0.0725 nM); IC50 [4]: 0.22 ng/mL (≈ 0.28 nM); IC50 ([2]; L929, 120 h, mouse fibroblasts (DSMZ ACC 2), MTT after 5 days, read-out: IC50 (ng/mL) L929): 0.25 ng/mL (≈ 0.318 nM)
10 | CC[C@H](C)[C@H](NC(C)=O)C(=O)N(COC(=O)CC(C)C)[C@H](C[C@@H](OC(C)=O)c1nc(C(=O)N[C@@H](Cc2ccccc2)C[C@H](C)C(=O)O)cs1)C(C)C [Analogue 7] | drastic decrease in activity | 

Source: patent US8476451B2 (priority 2007, dated 2013)
